The subject of assay [1] is TNF-induced death of C57BL/6 mice. The assay can be described thus: TNF-induced mouse lethality assay. It counts as in vivo. The conditions noted are these: for Survival (%): C57BL/6 male mice, 20 or 40 mg/kg p.o. 30 min before hTNF 8 μg/kg + D-galactosamine 700 mg/kg i.p., 24 hours; for survival rate of mice compared to the control group: C57BL/6 mice, pre-treated p.o., TNF + D-galactosamine. The procedure:
In this experiment, the TNF-induced mouse death inhibition activity by the compound of the present invention was investigated. To this end, mice were pretreated with the compound of the present invention, and the survival rate of the mice was measured against TNF-induced death.
In particular, after C57BL/6 mice were fasted for 24 hours, 100 μL of the compounds of Examples 2, 32, 39, 40, 44, 47, and 48 in a buffer composition of 10% DMSO in 90% PBS was orally administered at a concentration of 20 or 40 mg/kg. After 30 minutes, a mixed solution of human recombinant TNF 8 μg/kg and D-galactosamine 700 mg/kg in PBS buffer was intraperitoneally administered at 100 μL per mouse, the survival rate of mice was measured every 3 hours from the time of intraperitoneal administration and the experiment was terminated 24 hours later. The mice were divided into 5 groups, the experiment was repeated 5 times, and the Example compounds used for each experiment are as shown in FIG. 7(a, b).

In assay [2] the test system is TNF-cell signal transduction pathway. The assay can be described thus: TNF-cell signal transduction, Western blot in L929 cells. The class given is cell-based, mouse. Particulars: hTNF 10 ng/ml + compound 0.01, 0.1, 1, 10 μM, vs hTNF alone. The protocol: Second, the inhibition of TNF signal transduction activity of Example 48 was confirmed. In order to examine the TNF-cell signal transduction inhibitory activity by the compound of the present invention, Western blot analysis was performed on proteins of the signal transduction pathway, namely phospho-p65, phospho-IKKα/β, phospho-SAPK/JNK, and phospho-AKT.
In particular, hTNF alone (10 ng/ml) or a mixture of hTNF and the compound of Example 48 (0.01, 0.1, 1, 10 μM) was incubated for 30 minutes, and then the incubated mixture was applied to mouse fibroblast L929 cells for 10 minutes. After the treatment, Western blot analysis was performed for phospho-p65, phospho-IKKα/β, phospho-SAPK/JNK, and phospho-AKT.
Background: A western blot detects proteins with antibodies after separation by electrophoresis.

In another assay the target is TNF-TNFR2 (Homo sapiens, UniProt P01375). The assay can be described thus: TNF-TNFR2 binding inhibition, FRET assay. Particulars: for IC50: FRET (HTRF ratio), 0.25 nM TNF, 1 nM His-labeled TNFR2. The procedure:
(§1) In this experiment, the inhibitory activity of the compound of the present invention was evaluated using a fluorescence resonance energy transfer (FRET) assay to measure the binding of TNF-TNFR1 or TNF-TNFR2.
(§2) In particular, biotin-labeled 0.25 nM TNF, XL-665-labeled streptavidin, 0.25 nM His-labeled TNFR1, 1 nM His-labeled TNFR2, and Europium-Gold-labeled anti-his Ab were used. First, each 2 μL (10% DMSO) of the compounds of Examples 48 and 51 was added in 384 wells. After 4 μL of 0.25 nM TNF was added, 4 μL of each of 0.25 nM His-labeled TNFR1 or 1 nM His-labeled TNFR2 was added thereto and incubated at room temperature for 1 hour. After 1 hour incubation, 5 μL of XL-665-labeled streptavidin and 5 μL of Europium-Gold-labeled anti-his Ab were added and further incubated at room temperature. […] was measured at 622 nm and 665 nm. The reagent used at this time was prepared by dissolving in PPI-europium detection buffer.
(§3) First, binding inhibitory activity of the compounds of the present invention to TNF and TNFR1 or TNFR2 was evaluated at a single concentration ([…]) of the compounds.
(§4) Then, IC50 values were obtained with the various concentrations of the compounds of Examples 48 and 51. At this time, the value was confirmed through the HTRF ratio, and the HTRF ratio was calculated by the following formula.
(§5) IC50 values were statistically calculated using Prism 6 (GraphPad).
A general note: TR-FRET usually uses a lanthanide donor and a delayed reading to cut background.

The next assay addresses TNF-TNFR1 (Homo sapiens, UniProt P01375). The assay can be described thus: TNF-TNFR1 binding inhibition, FRET assay. The conditions noted are these: for IC50: FRET (HTRF ratio), 0.25 nM TNF, 0.25 nM His-labeled TNFR1. The procedure: as §1, §2, §3, §4, §5
The subject of a further assay is HEK-Blue TNF cells. The assay can be described thus: Inhibition of TNF response in HEK-Blue TNF cells (SEAP reporter gene assay). The class given is cell-based. The conditions noted are these: Homo sapiens, TNF 0.2 ng/mL, absorbance 620 nm. The procedure: In this experiment, the TNF-inhibitory activity of the compound of the present invention was evaluated in HEK-Blue TNF cells. To this end, the transformed HEK-Blue TNF cells that respond specifically to the binding of TNF to TNFRs on the cell surface were treated with the compound of Example 48, followed by a reporter gene assay.
HEK-Blue TNF cells are human embryonic kidney cells that were transformed to express SEAP (secreted embryonic alkaline phosphatase) reporter gene having the binding site for activated NF-κB when TNF binds to TNFR on the cell surface and NF-κB is activated in the cell. […]
An experimental method was used in which SEAP, a reporter gene having the binding site for activated NF-κB in the intracellular signal transduction process, is expressed when human embryonic kidney cells, HEK-Blue TNF cells, are treated with recombinant TNF. In particular, SEAP is expressed when TNF (0.2 ng/mL) is added to HEK-Blue TNF cells, and the degree of color development is measured by treating the SEAP-specific QUANTI-Blue™ solution followed by reading absorbance at 620 nm to obtain IC50 value. The inhibition rate (%) of TNF was calculated by the following formula. […]
as §5
A general note: In a reporter assay the amount or activity of a reporter protein is the signal.

The subject of the next assay is RIP1. The assay can be described thus: RIP1 ubiquitination, immunoprecipitation with TNFR1 in human peripheral blood T cells. The class given is cell-based. The conditions noted are these: compound 0.1 μM 24 hours, then TNF 10 minutes, vs hTNF alone. The protocol:
Two experiments were conducted to examine the TNF-cell signal transduction inhibitory activity by the compound of the present invention. First, immunoprecipitation was performed to evaluate the ubiquitination of an upstream protein of the TNF signaling pathway, that is, RIP1.
In particular, human peripheral blood T cells were treated with the compound of Example 48 (0, 0.1 μM) for 24 hours followed by with TNF for 10 minutes, and then immunoprecipitation was performed with TNFR1 protein.

Assay [3] has as its system mouse fibroblast L929 cells. The assay can be described thus: TNF-induced apoptosis inhibitory activity in L929 cells (MTS assay). The class given is cell-based. Particulars: TNF 20 ng/mL + actinomycin D, compound 0 to 40 μM, 24 hours, read-out: IC50, inhibition of TNF-induced apoptosis. The procedure: In this experiment, the TNF-induced apoptosis inhibitory activity by the compound of the present invention was investigated. To this end, mouse fibroblasts were treated with the chromenone and quinolone derivative compounds prepared in the above Examples, and then cell viability was measured by a conventionally known MTS assay.
Mouse fibroblast L929 cells were purchased from the American Type Culture Collection (ATCC Manassas, Va.), and then cultured in RPMI medium containing 10% Fetal Bovine Serum (FBS) and 1% antibiotics at the incubator in which 5% CO2 and humidity at 37° C. were maintained.
Mouse fibroblast L929 cells were treated with recombinant TNF and actinomycin D, a sensitizer, to induce apoptosis, with which an assay capable of confirming apoptosis inhibitory activity was established. In particular, apoptosis conditions were induced by adding actinomycin D as a sensitizer and TNF (20 ng/mL) to […], and then L929 cells were pretreated with the compounds of Examples 52, 54, and 55 at a concentration of 0 to 40 μM for 24 hours. After 24 hours, they were treated with MTS for 3 hours, and then the absorbance was measured at 490 nm to calculate IC50 values. % Inhibition of TNF was calculated by the following formula.
% Inhibition of TNF=(OD value of the group treated with the compound−OD value of the group treated with TNF and actinomycin D)/(OD value of the group treated with actinomycin D−OD value of the group treated with TNF and actinomycin D)×100
IC50 values were statistically calculated using Prism 6 (GraphPad) (IC50: 50% inhibitory concentration).

Where [4] appears, read: single concentration (10 PM), FIG. 4.

Each structure is given as a SMILES string. Marks after values point to notes of the source that are not given here.

Sequence of TNF-TNFR2 (P01375 77-233 limits assumed): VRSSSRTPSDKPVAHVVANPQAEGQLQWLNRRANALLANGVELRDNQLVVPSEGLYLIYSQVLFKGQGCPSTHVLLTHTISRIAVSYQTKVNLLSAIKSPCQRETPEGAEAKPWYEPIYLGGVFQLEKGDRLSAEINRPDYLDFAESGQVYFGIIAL
Sequence of TNF-TNFR1 (P01375 77-233 limits assumed): as above

With `O=C(O)c1c(-c2cc(F)ccc2F)[nH]c2cc(Cl)ccc2c1=O` [Example 2, 2-(2,5-difluorophenyl)-3-carboxy-7-chloro-4-(1H)-quinolone], in assay [1], the “Survival (%)” value came out at 60% and the “survival rate of mice compared to the control group” value was “increased”.
The matching figures for `O=c1c(O)c(-c2cc(F)ccc2F)oc2cc(Cl)ccc12` [Example 32, 7-chloro-2-(2,5-difluorophenyl)-3-hydroxy-4H-chromen-4-one]: 90 *** % and “increased”.
For `COc1ccc2c(=O)c(O)c(-c3cc(F)cc(F)c3)oc2c1` [Example 39, 2-(3,5-difluorophenyl)-3-hydroxy-7-methoxy-4H-chromen-4-one], in assay [1], the “Survival (%)” value turned out to be 40% and the “survival rate of mice compared to the control group” value was “increased”.
For the molecule `COc1c(-c2cc(F)ccc2F)oc2cc(Cl)ccc2c1=O` [Example 40, 7-chloro-2-(2,5-difluorophenyl)-3-methoxy-4H-chromen-4-one], in assay [1], the “Survival (%)” value is 50 * % and the “survival rate of mice compared to the control group” value was “increased”.
In the same order, the values of `COc1c(-c2cc(F)cc(F)c2)oc2cc(F)ccc2c1=O` [Example 44, 2-(3,5-difluorophenyl)-7-fluoro-3-methoxy-4H-chromen-4-one] are 60 ** % and “increased”.
The matching figures for `COc1ccc2c(=O)c(OC)c(-c3ccc(F)cc3F)oc2c1` [Example 47, 2-(2,4-difluorophenyl)-3,7-dimethoxy-4H-chromen-4-one]: 40 * % and “increased”.
A word on the IC50: it is the concentration needed to halve the response being measured. In the case of `O=C(O)c1c(-c2ccc(OCCOc3ccc(-c4oc5cc(Cl)ccc5c(=O)c4C(=O)O)c(F)c3)cc2F)oc2cc(Cl)ccc2c1=O` [Example 48, 2,2′-((ethane-1,2-diylbis(oxy))bis(2-fluoro-4,1-phenylene))bis(7-chloro-4-oxo-4H-chromene-3-carboxylic acid)], in assay [2], the “level of phospho-AKT” value is “reduced”, the “level of phospho-IKKα/β” value was “reduced”, the “level of phospho-SAPK/JNK” value is listed as “reduced” and the “level of phospho-p65” value was “reduced”. Further, on TNF-TNFR2, the concentration for half-maximal inhibition (IC50) stood at 3.92 µM. In addition, at TNF-TNFR2 (setting [4]), the “binding inhibitory activity, TNF and TNFR2” value was “inhibit the binding”; the “binding inhibitory effect compared with SPD304 and Quercetin, TNF-TNFR2” value was “higher binding inhibitory effect than SPD304”. Besides, on TNF-TNFR1, the IC50 was found to be 3.56 µM. Further, on TNF-TNFR1 (setting [4]), the “binding inhibitory activity, TNF and TNFR1” value is recorded as “inhibit the binding”; the “binding inhibitory effect compared with SPD304 and Quercetin, TNF-TNFR1” value is “higher binding inhibitory effect than SPD304”. Also, in assay [1], the “Survival (%)” value is on record as 50 * % and the “survival rate of mice compared to the control group” value is “increased”. Moreover, the IC50 in the assay with HEK-Blue TNF cells was found to be 9.67 µM. In the assay on RIP1, the “degree of RIP1 ubiquitination activated by TNF” value is listed as “reduced”.
`O=C(O)c1c(-c2ccc(OCCOCCOc3ccc(-c4oc5cc(Cl)ccc5c(=O)c4C(=O)O)c(F)c3)cc2F)oc2cc(Cl)ccc2c1=O` [Example 51, 2,2′-(((oxybis(ethane-2,1-diyl))bis(oxy))bis(2-fluoro-4,1-phenylene))bis(7-chloro-4-oxo-4H-chromene-3-carboxylic acid)]: the 50% inhibitory concentration (IC50) at TNF-TNFR2 was 22.3 µM; at TNF-TNFR1, 14.5 µM. Besides, the “binding inhibitory activity, TNF and TNFR2” value on TNF-TNFR2 (setting [4]) was “inhibit the binding”. For the same molecule, on TNF-TNFR1 (setting [4]), the “binding inhibitory activity, TNF and TNFR1” value was “inhibit the binding”.
`O=C(NCCNC(=O)c1c(-c2cc(F)ccc2F)oc2cc(Cl)ccc2c1=O)c1c(-c2cc(F)ccc2F)oc2cc(Cl)ccc2c1=O` [Example 52, N,N′-(ethane-1,2-diyl)bis(7-chloro-2-(2,5-difluorophenyl)-4-oxo-4H-chromene-3-carboxamide)]: in assay [3], the IC50 came out at 1.48 µM.
Same read-out and setting: the value for `O=C(NCCCCNC(=O)c1c(-c2cc(F)ccc2F)oc2cc(Cl)ccc2c1=O)c1c(-c2cc(F)ccc2F)oc2cc(Cl)ccc2c1=O` [Example 54, N,N′-(butane-1,4-diyl)bis(7-chloro-2-(2,5-difluorophenyl)-4-oxo-4H-chromene-3-carboxamide)] was 7.19 µM; that for `O=C(c1c(-c2cc(F)ccc2F)oc2cc(Cl)ccc2c1=O)N1CCN(C(=O)c2c(-c3cc(F)ccc3F)oc3cc(Cl)ccc3c2=O)CC1` [Example 55, 3,3′-(piperazine-1,4-dicarbonyl)bis(7-chloro-2-(2,5-difluorophenyl)-4H-chromen-4-one)] was 7.63 µM.
